From patent US20090012103A1, “SUBSTITUTED HETEROCYCLIC COMPOUNDS” (priority 2007, published 2009)

molecular target: wild-type human cardiac sodium channel, hNav1.5 (Homo sapiens, UniProt Q14524); experiment: Late INa screening assay (late sodium current, PatchXpress whole cell patch clamp); format: cell-based; conditions: compound at 10 μM; read-out: Late INa % blk
Experimental: The late sodium current (Late INa) and peak sodium current (Peak INa) assays are performed on an automated electrophysiology platform, PatchXpress 7000A (MDS Analytical Technologies, Sunnyvale, Calif.), which uses the whole cell patch clamp technique to measure currents through the cell membrane of up to 16 cells at a time. The assay uses an HEK293 (human embryonic kidney) cell line heterologously expressing the wild-type human cardiac sodium channel, hNav1.5, purchased from Millipore (Billerica, Mass.). No beta subunits were coexpressed with the Na channel alpha subunit. […] Experiments are carried out at 24-27° C.
For both the Late INa and Peak INa assays, series resistance compensation is set to 50% and whole-cell compensation is performed automatically. […] Currents through open sodium channels are automatically recorded and stored in the DataXpress2 database (MDS Analytical Technologies, Sunnyvale, Calif.). Analysis is performed using DataXpress2 analysis software and data are compiled in Excel.
Compound stocks are routinely made in glass vials to 10 mM in dimethyl sulfoxide (DMSO). In some cases, when compounds are not soluble in DMSO, they are made in 100% ethanol. Stocks are sonicated as necessary. The extracellular solution for screening Late INa is composed of: 140 mM NaCl, 4 mM KCl, 1.8 mM CaCl2, 0.75 mM MgCl2, and 5 mM HEPES with pH adjusted to 7.4 using NaOH. The extracellular solution for screening Peak INa is composed of: 20 mM NaCl, 120 mM N-methyl-D glucamine, 4 mM KCl, 1.8 mM CaCl2, 0.75 mM MgCl2, and 5 mM HEPES with pH adjusted to 7.4 using HCl. The intracellular solution used to perfuse the inside of the cells for both the Late INa and Peak INa assays contains: 120 mM CsF, 20 mM CsCl, 5 mM EGTA, 5 mM HEPES and pH adjusted to 7.4 with CsOH. Compounds are diluted in extracellular solution to 10 μM in glass vials and then transferred to glass well plates before robotic addition to the cells. The 0 Na extracellular solution used at the end of each experiment for the Late INa and Peak INa assays to measure baseline current contains: 140 mM N-methyl-D-glucamine; 4 mM KCl; 1.8 mM CaCl2; 0.75 mM MgCl2; 5 mM HEPES and pH was adjusted to 7.4 with HCl.
For the Late INa assay, sodium channels are activated every 10 seconds (0.1 Hz) by depolarizing the cell membrane to −20 mV for 250 milliseconds (ms) from a holding potential of −120 mV.
All compounds are tested to determine their activity in blocking the late sodium current. Late INa current is generated by adding 10 μM Tefluthrin (pyrethroid) to the extracellular solution while recording Na currents. […] For some experiments, 50 nM ATX II (sea anemone toxin), another late INa activator, was used to generate the late component. […] Baseline current in the absence of Na^+ ions is measured at the end of each experiment (after two additions of 0 Na solution-see above) and is used to calculate the percent block by compound.

wild-type human cardiac sodium channel, hNav1.5, sequence (Q14524 whole entry): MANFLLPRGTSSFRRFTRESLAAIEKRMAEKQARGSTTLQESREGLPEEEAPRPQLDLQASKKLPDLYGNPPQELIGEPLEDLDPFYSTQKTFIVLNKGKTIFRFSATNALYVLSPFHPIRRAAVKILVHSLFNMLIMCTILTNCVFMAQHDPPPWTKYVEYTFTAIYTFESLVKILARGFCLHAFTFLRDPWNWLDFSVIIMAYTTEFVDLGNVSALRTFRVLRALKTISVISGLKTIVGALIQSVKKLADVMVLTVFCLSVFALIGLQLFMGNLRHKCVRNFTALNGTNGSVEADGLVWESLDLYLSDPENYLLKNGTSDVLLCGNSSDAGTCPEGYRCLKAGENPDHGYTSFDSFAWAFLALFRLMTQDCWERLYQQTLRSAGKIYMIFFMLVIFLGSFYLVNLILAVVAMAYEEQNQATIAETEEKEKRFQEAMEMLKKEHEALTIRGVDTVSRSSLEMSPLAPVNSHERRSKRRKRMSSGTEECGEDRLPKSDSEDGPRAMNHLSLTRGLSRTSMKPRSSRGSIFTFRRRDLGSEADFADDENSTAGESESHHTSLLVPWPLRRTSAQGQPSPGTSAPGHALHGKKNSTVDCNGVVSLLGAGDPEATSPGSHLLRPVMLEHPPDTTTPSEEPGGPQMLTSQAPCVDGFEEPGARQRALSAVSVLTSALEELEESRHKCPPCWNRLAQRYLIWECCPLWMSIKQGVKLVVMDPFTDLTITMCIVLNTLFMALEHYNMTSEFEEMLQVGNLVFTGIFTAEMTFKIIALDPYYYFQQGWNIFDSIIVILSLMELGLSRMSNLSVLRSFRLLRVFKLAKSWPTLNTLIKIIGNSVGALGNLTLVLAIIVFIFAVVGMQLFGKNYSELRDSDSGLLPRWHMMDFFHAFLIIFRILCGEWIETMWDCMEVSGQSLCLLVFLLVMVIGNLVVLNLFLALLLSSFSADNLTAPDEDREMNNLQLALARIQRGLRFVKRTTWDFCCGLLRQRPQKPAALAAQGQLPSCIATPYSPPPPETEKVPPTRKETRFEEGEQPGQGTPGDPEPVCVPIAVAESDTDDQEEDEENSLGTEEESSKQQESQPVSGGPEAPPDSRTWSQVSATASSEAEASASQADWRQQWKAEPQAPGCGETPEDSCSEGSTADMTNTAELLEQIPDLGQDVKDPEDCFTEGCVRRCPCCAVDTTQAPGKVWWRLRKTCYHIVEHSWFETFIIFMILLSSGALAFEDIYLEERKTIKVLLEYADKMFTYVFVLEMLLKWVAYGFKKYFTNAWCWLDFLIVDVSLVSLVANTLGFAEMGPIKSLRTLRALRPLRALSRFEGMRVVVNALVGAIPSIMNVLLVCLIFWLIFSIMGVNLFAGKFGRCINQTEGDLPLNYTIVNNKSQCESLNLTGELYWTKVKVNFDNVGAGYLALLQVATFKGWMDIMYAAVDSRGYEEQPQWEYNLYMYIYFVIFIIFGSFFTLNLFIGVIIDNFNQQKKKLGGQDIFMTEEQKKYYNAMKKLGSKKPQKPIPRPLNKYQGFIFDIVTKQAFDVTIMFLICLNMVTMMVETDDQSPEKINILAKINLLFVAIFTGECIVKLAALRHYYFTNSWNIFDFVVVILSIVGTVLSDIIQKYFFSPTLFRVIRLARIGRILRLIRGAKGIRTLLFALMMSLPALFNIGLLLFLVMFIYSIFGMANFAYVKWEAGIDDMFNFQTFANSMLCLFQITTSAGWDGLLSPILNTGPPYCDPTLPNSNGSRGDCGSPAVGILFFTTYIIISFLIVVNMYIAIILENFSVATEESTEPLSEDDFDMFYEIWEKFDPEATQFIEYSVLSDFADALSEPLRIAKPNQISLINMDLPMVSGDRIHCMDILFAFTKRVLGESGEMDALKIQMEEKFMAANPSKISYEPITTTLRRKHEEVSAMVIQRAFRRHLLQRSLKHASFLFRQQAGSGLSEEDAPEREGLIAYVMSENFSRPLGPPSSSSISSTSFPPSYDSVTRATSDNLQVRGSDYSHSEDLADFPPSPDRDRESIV

Compound | inhibition at 10 µM [%]
CC1=C(C(=O)OCc2ccc(Oc3ccccc3)cc2)C(c2cccc3ccccc23)n2nnnc2N1 (stereo not drawn) [PT-003, 4-phenoxybenzyl 5-methyl-7-(naphthalen-1-yl)-4,7-dihydrotetrazolo[1,5-a]pyrimidine-6-carboxylate] | 14.5
CC1=C(C(=O)OCc2ccc(-c3ccccc3)cc2)C(c2cccc3ccccc23)n2nnnc2N1 (stereo not drawn) [PT-004, biphenyl-4-ylmethyl 5-methyl-7-(naphthalen-1-yl)-4,7-dihydrotetrazolo[1,5-a]pyrimidine-6-carboxylate] | 25.5
CC1=C(C(=O)OCc2ccccc2-c2ccccc2)C(c2cccc3ccccc23)n2nnnc2N1 (stereo not drawn) [PT-005, biphenyl-2-ylmethyl 5-methyl-7-(naphthalen-1-yl)-4,7-dihydrotetrazolo[1,5-a]pyrimidine-6-carboxylate] | 25.4
CC1=C(C(=O)OCc2cccc(-c3ccccc3)c2)C(c2cccc3ccccc23)n2nnnc2N1 (stereo not drawn) [PT-006, biphenyl-3-ylmethyl 5-methyl-7-(naphthalen-1-yl)-4,7-dihydrotetrazolo[1,5-a]pyrimidine-6-carboxylate] | 5.4
CC1=C(C(=O)OC(c2ccc(F)cc2)c2ccc(F)cc2)C(c2cccc3ccccc23)n2nnnc2N1 (stereo not drawn) [PT-007, bis(4-fluorophenyl)methyl 5-methyl-7-(naphthalen-1-yl)-4,7-dihydrotetrazolo[1,5-a]pyrimidine-6-carboxylate] | 44
CCOC(=O)C1=C(C(F)(F)F)Nc2nnnn2C1c1cccc2ccccc12 (stereo not drawn) [PT-009, ethyl 7-(naphthalen-1-yl)-5-(trifluoromethyl)-4,7-dihydrotetrazolo[1,5-a]pyrimidine-6-carboxylate] | 8.2
CCOC(=O)C1=C(CC)Nc2nnnn2C1c1ccc2ccccc2c1 (stereo not drawn) [PT-011, ethyl 5-ethyl-7-(naphthalen-2-yl)-4,7-dihydrotetrazolo[1,5-a]pyrimidine-6-carboxylate] | 37.7
CCOC(=O)C1=C(C(C)C)Nc2nnnn2C1c1ccc2ccccc2c1 (stereo not drawn) [PT-012, ethyl 5-isopropyl-7-(naphthalen-2-yl)-4,7-dihydrotetrazolo[1,5-a]pyrimidine-6-carboxylate] | 40.1
CCOC(=O)C1=C(C)N(C)c2nnnn2C1c1cccc2ccccc12 (stereo not drawn) [PT-015, ethyl 4,5-dimethyl-7-(naphthalen-1-yl)-4,7-dihydrotetrazolo[1,5-a]pyrimidine-6-carboxylate] | 27.2
CCOC(=O)C1=C(C(F)(F)F)Nc2nnnn2C1c1cccs1 (stereo not drawn) [PT-016, ethyl 7-(thiophen-2-yl)-5-(trifluoromethyl)-4,7-dihydrotetrazolo[1,5-a]pyrimidine-6-carboxylate] | 30.7
CC1=C(C(=O)OC(C)C)C(c2ccc3ccccc3c2)n2nnnc2N1 (stereo not drawn) [PT-020, isopropyl 5-methyl-7-(naphthalen-2-yl)-4,7-dihydrotetrazolo[1,5-a]pyrimidine-6-carboxylate] | 47.7
CC1=C(C(=O)OC(C)(C)C)C(c2ccc3ccccc3c2)n2nnnc2N1 (stereo not drawn) [PT-022, tert-butyl 5-methyl-7-(naphthalen-2-yl)-4,7-dihydrotetrazolo[1,5-a]pyrimidine-6-carboxylate] | 26
CC1=C(C(=O)OC(C)(C)C)C(c2cccc3ccccc23)n2nnnc2N1 (stereo not drawn) [PT-023, tert-butyl 5-methyl-7-(naphthalen-1-yl)-4,7-dihydrotetrazolo[1,5-a]pyrimidine-6-carboxylate] | 32.8
CC1=C(C(=O)OCc2ccccc2)C(c2cccc(-c3ccccc3)c2)n2nnnc2N1 (stereo not drawn) [PT-026, benzyl 7-(biphenyl-3-yl)-5-methyl-4,7-dihydrotetrazolo[1,5-a]pyrimidine-6-carboxylate] | 10.3
CC1=C(C(=O)OCc2ccccc2)C(c2ccc3ccccc3c2)n2nnnc2N1 (stereo not drawn) [PT-028, benzyl 5-methyl-7-(naphthalen-2-yl)-4,7-dihydrotetrazolo[1,5-a]pyrimidine-6-carboxylate] | 23.1
CC1=C(C(=O)OCc2ccc(I)cc2)C(c2cccc3ccccc23)n2nnnc2N1 (stereo not drawn) [PT-029, 4-iodobenzyl 5-methyl-7-(naphthalen-1-yl)-4,7-dihydrotetrazolo[1,5-a]pyrimidine-6-carboxylate] | 52.1
CC1=C(C(=O)OCc2ccccc2)C(c2ccc(C)c3ccccc23)n2nnnc2N1 (stereo not drawn) [PT-031, benzyl 5-methyl-7-(4-methylnaphthalen-1-yl)-4,7-dihydrotetrazolo[1,5-a]pyrimidine-6-carboxylate] | 28.6
COc1ccc2c(C3C(C(=O)OCc4ccccc4)=C(C)Nc4nnnn43)ccc(OC)c2c1 (stereo not drawn) [PT-033, benzyl 7-(4,6-dimethoxynaphthalen-1-yl)-5-methyl-4,7-dihydrotetrazolo[1,5-a]pyrimidine-6-carboxylate] | 23.3
CC1=C(C(=O)OCc2ccccc2)C(c2ccc3c(c2)OCCO3)n2nnnc2N1 (stereo not drawn) [PT-035, benzyl 7-(2,3-dihydrobenzo[b][1,4]dioxin-6-yl)-5-methyl-4,7-dihydrotetrazolo[1,5-a]pyrimidine-6-carboxylate] | 44
CC1=C(C(=O)OCc2ccccc2)C(c2cccc3c2OCCO3)n2nnnc2N1 (stereo not drawn) [PT-036, benzyl 7-(2,3-dihydrobenzo[b][1,4]dioxin-5-yl)-5-methyl-4,7-dihydrotetrazolo[1,5-a]pyrimidine-6-carboxylate] | 41
CC1=C(C(=O)OCc2ccccc2)C(c2cccc3cccnc23)n2nnnc2N1 (stereo not drawn) [PT-037, benzyl 5-methyl-7-(quinolin-8-yl)-4,7-dihydrotetrazolo[1,5-a]pyrimidine-6-carboxylate] | 34.4
CC1=C(C(=O)OCc2ccccc2)C(c2cccc3ncccc23)n2nnnc2N1 (stereo not drawn) [PT-038, benzyl 5-methyl-7-(quinolin-5-yl)-4,7-dihydrotetrazolo[1,5-a]pyrimidine-6-carboxylate] | 11.9
CC1=C(C(=O)OCc2ccccc2)C(c2ccsc2)n2nnnc2N1 (stereo not drawn) [PT-041, benzyl 5-methyl-7-(thiophen-3-yl)-4,7-dihydrotetrazolo[1,5-a]pyrimidine-6-carboxylate] | 41.4
CC1=C(C(=O)OCc2ccccc2)C(c2cc3ccccc3s2)n2nnnc2N1 (stereo not drawn) [PT-043, benzyl 7-(benzo[b]thiophen-2-yl)-5-methyl-4,7-dihydrotetrazolo[1,5-a]pyrimidine-6-carboxylate] | 53.8
CC1=C(C(=O)OCc2ccc(C#N)cc2)C(c2cccc3ccccc23)n2nnnc2N1 (stereo not drawn) [PT-046, 4-cyanobenzyl 5-methyl-7-(naphthalen-1-yl)-4,7-dihydrotetrazolo[1,5-a]pyrimidine-6-carboxylate] | 67
CC1=C(C(=O)O[C@@H](C)c2ccccc2)[C@H](c2cccc3ccccc23)n2nnnc2N1 [PT-049, (S)-((S)-1-phenylethyl) 5-methyl-7-(naphthalen-1-yl)-4,7-dihydrotetrazolo[1,5-a]pyrimidine-6-carboxylate] | 35.4
CC1=C(C(=O)OCc2ccc(OC(F)(F)F)cc2)C(c2cccc3ccccc23)n2nnnc2N1 (stereo not drawn) [PT-052, 4-(trifluoromethoxy)benzyl 5-methyl-7-(naphthalen-1-yl)-4,7-dihydrotetrazolo[1,5-a]pyrimidine-6-carboxylate] | 9.1

same assay, conditions: read-out: Late INa % blk

Compound | inhibition at 10 µM [%]
CC1=C(C(=O)OC2CCCc3ccccc32)C(c2cccc3ccccc23)n2nnnc2N1 (stereo not drawn) [PT-001, 1,2,3,4-tetrahydronaphthalen-1-yl 5-methyl-7-(naphthalen-1-yl)-4,7-dihydrotetrazolo[1,5-a]pyrimidine-6-carboxylate] | 28.8
CCOC(=O)C1=C(C(C)C)Nc2nnnn2C1c1cccc2ccccc12 (stereo not drawn) [PT-013, ethyl 5-isopropyl-7-(naphthalen-1-yl)-4,7-dihydrotetrazolo[1,5-a]pyrimidine-6-carboxylate] | 45.4
CC1=C(C(=O)OCc2ccccc2)C(c2cccc(Oc3ccccc3)c2)n2nnnc2N1 (stereo not drawn) [PT-024, benzyl 5-methyl-7-(3-phenoxyphenyl)-4,7-dihydrotetrazolo[1,5-a]pyrimidine-6-carboxylate] | 72.6
